Test results reported in patent US5430026A, “2'-deoxy-2',2'-difluoro (4-substituted pyrimidine) nucleosides, bicyclic derivatives,pharmaceutical compositions, and synthetic precursors” (Eli Lilly and Company, priority 1993, dated 1995).
Values after ≈ are worked out from the molar mass of the structure shown.

What was measured:
[1] = test system: HSV-1; experiment: plaque inhibition of HSV-1 in African green monkey kidney cells (BSC-1), Table 2; assay type: cell-based, Herpes simplex virus, type I; settings: 72 hours at 37° C., IC50 less than 20 μg/ml is considered active; for IC50: Human alphaherpesvirus 1, BSC-1 cells, read-out: HSV-1 IC50 (concentration giving 50 percent growth inhibition; plaque inhibition)
[2] = test system: HSV-2; experiment: plaque inhibition of HSV-2 in African green monkey kidney cells (BSC-1), Table 2; assay type: cell-based, Herpes simplex virus, type II; settings: 72 hours at 37° C., IC50 less than 20 μg/ml is considered active; for IC50: Human alphaherpesvirus 2, BSC-1 cells, read-out: HSV-2 IC50 (concentration giving 50 percent growth inhibition; plaque inhibition)
[3] = test system: human leukemia cells (CCRF-CEM cell line); experiment: growth inhibition (cytotoxicity) of human leukemia cells, Table 1; assay type: cell-based; settings: IC50 less than 20 μg/ml is considered active; for IC50: Homo sapiens, read-out: IC50 (concentration giving 50 percent growth inhibition)
Text: 38, 2886 (1978). The representative compounds of formula I employed in the present invention are cytotoxic as They inhibit the growth of rapidly dividing human leukemia cells (CCRF-CEM cell line). Table 1 below gives the results of testing several compounds representative of formula I. In Table 1, Column 1 gives the representative compound and Column 2 gives the IC50 (concentration giving 50 percent growth inhibition) in μg/ml.

Row | SMILES | IC50 [1] | IC50 [2] | HSV-1 IC50 (concentration giving 50 percent growth inhibition; plaque inhibition) ([1]; BSC-1 cells) | HSV-2 IC50 (concentration giving 50 percent growth inhibition; plaque inhibition) ([2]; BSC-1 cells) | IC50 [3] | IC50 (concentration giving 50 percent growth inhibition) [3]
1 | O=c1nc(NCO)ccn1[C@@H]1O[C@H](CO)[C@@H](O)C1(F)F [Example 7, β-1-(2-Oxo-4-hydroxymethylamino-1,2-dihydropyrimidin-1-yl)-2-deoxy-2,2-difluororibose] |  |  | 18.0 µg/mL | 11.1 µg/mL |  | 0.3 µg/mL (≈ 1.02 µM)
2 | CCOC(=O)CNc1ccn([C@@H]2O[C@H](CO)[C@@H](O)C2(F)F)c(=O)n1 [Example 8, β-1-(2-Oxo-4-N-glycineethyl ester-1,2-dihydropyrimidin-1-yl)-2-deoxy-2,2-difluororibose] |  |  |  |  | 18.4 µg/mL (≈ 52.7 µM) | 
3 | O=C(O)CNc1ccn([C@@H]2O[C@H](CO)[C@@H](O)C2(F)F)c(=O)n1 [Example 9, β-1-(2-Oxo-4-N-glycinyl-1,2-dihydropyrimidin-1yl)-2-deoxy-2,2-difluororibose] |  |  |  |  | 0.4 µg/mL (≈ 1.25 µM) | 
4 | CNNc1ccn([C@@H]2O[C@H](CO)[C@@H](O)C2(F)F)c(=O)n1 [Example 10, β-1-[2-Oxo-4-(2-methylhydrazino)-1,2-dihydropyrimidin-1-yl]-2-deoxy-2,2-difluororibose] |  |  |  |  | 4.1 µg/mL (≈ 14 µM) | 
5 | CCOC(=O)C(C)Nc1ccn([C@@H]2O[C@H](CO)[C@@H](O)C2(F)F)c(=O)n1 (stereo partly drawn) [Example 11, β-1-(2-oxo-4-N-alanineethyl ester-1,2-dihydropyrimidin-1-yl)-2-deoxy-2,2-difluororibose] |  |  |  |  |  | 6.3 µg/mL (≈ 17.3 µM)

Continued, in another order:

Row | IC50 [1] | IC50 [2] | HSV-1 IC50 (concentration giving 50 percent growth inhibition; plaque inhibition) ([1]; BSC-1 cells) | HSV-2 IC50 (concentration giving 50 percent growth inhibition; plaque inhibition) ([2]; BSC-1 cells) | SMILES | IC50 [3] | IC50 (concentration giving 50 percent growth inhibition) [3]
6 | 0.7 µg/mL (≈ 2.51 µM) | 1.07 µg/mL (≈ 3.83 µM) |  |  | O=c1nc(NO)ccn1[C@@H]1O[C@H](CO)[C@@H](O)C1(F)F [Example 1, β-1-(2-Oxo-4-hydroxyamino-1,2-dihydropyrimidin-1-yl)-2-deoxy-2,2-difluororibose] | 0.086 µg/mL (≈ 0.308 µM) | 
7 | 8 µg/mL (≈ 27.7 µM) | 9.25 µg/mL (≈ 32 µM) |  |  | O=c1n([C@@H]2O[C@H](CO)[C@@H](O)C2(F)F)ccc2nnnn12 [Example 2, 6-(2-deoxy-2,2-difluoro-β-D-ribofuranosyl)-1,2,3,4-tetrazolo[1,5-c]pyrimidine-5(6H) -one] | 0.5 µg/mL (≈ 1.73 µM) | 
8 | 6 µg/mL (≈ 19.7 µM) | 4.9 µg/mL (≈ 16.1 µM) |  |  | O=c1[nH]nc2ccn([C@@H]3O[C@H](CO)[C@@H](O)C3(F)F)c(=O)n12 [Example 4, 6-(2-deoxy-2,2-difluoro-β-D-ribofuranosyl)-1,2,4-triazolo[4,3c]pyrimidine-3,5(2H,6H)-dione] | 0.2 µg/mL (≈ 0.657 µM) | 
9 | 3.12 µg/mL (≈ 11.2 µM) | 4.35 µg/mL (≈ 15.6 µM) |  |  | NNc1ccn([C@@H]2O[C@H](CO)[C@@H](O)C2(F)F)c(=O)n1 [Example 5, β-1-(2-Oxo-4-hydrazino-1,2-dihydropyrimidin-1-yl)-2-deoxy-2,2-difluororibose] | 0.077 µg/mL (≈ 0.277 µM) | 
10 | 0.53 µg/mL (≈ 1.58 µM) | 0.58 µg/mL (≈ 1.73 µM) |  |  | CCOC(=O)Nc1ccn([C@@H]2O[C@H](CO)[C@@H](O)C2(F)F)c(=O)n1 [Example 6, β-1-(2-Oxo-4-aminocarboethoxy-1,2-dihydropyrimidin-1-yl)-2-deoxy-2,2-difluororibose] | 0.051 µg/mL (≈ 0.152 µM) | 
